Measured values from patent US6352958B1, “Cycloimido-substituted benzofused heterocyclic herbicides” (FMC Corporation, priority 1997, dated 2002).

Tests used:
Assay type in all cases: in vivo
[1] = tested on: field corn (Zea mays var. Pioneer 3732); test: Preemergence herbicidal activity, corn; conditions: Rate of Application 0.3 Kg/Ha, examined after 12-17 days
[2] = tested on: common cocklebur (Xanthium strumarium L.); test: Postemergence herbicidal activity, cocklebur; conditions: rate of application 0.3 Kg/Ha, rated after 12-17 days
[3] = tested on: soybean (Glycine max var. Winchester); test: Preemergence herbicidal activity, soybean; conditions: Rate of Application 0.3 Kg/Ha, examined after 12-17 days
[4] = tested on: green foxtail (Setaria viridis); test: Preemergence herbicidal activity, green foxtail; conditions: Rate of Application 0.3 Kg/Ha, examined after 12-17 days
[5] = tested on: field corn (Zea mays var. Pioneer 3732); test: Postemergence herbicidal activity, corn; conditions: rate of application 0.3 Kg/Ha, rated after 12-17 days
[6] = tested on: wheat (Triticum aestivum var. Lew); test: Preemergence herbicidal activity, wheat; conditions: Rate of Application 0.3 Kg/Ha, examined after 12-17 days
[7] = tested on: blackgrass (Aloepecurus myosuroides); test: Preemergence herbicidal activity, blackgrass; conditions: Rate of Application 0.3 Kg/Ha, examined after 12-17 days
[8] = tested on: common chickweed (Stellaria media); test: Postemergence herbicidal activity, chickweed; conditions: rate of application 0.3 Kg/Ha, rated after 12-17 days
[9] = tested on: green foxtail (Setaria viridis); test: Postemergence herbicidal activity, green foxtail; conditions: rate of application 0.3 Kg/Ha, rated after 12-17 days
[10] = tested on: morningglory (Ipomea lacunosa or Ipomea hederacea); test: Postemergence herbicidal activity, morningglory; conditions: rate of application 0.3 Kg/Ha, rated after 12-17 days
[11] = tested on: Johnsongrass (Sorghum halepense); test: Postemergence herbicidal activity, johnsongrass; conditions: rate of application 0.3 Kg/Ha, rated after 12-17 days
[12] = tested on: common chickweed (Stellaria media); test: Preemergence herbicidal activity, chickweed; conditions: Rate of Application 0.3 Kg/Ha, examined after 12-17 days
[13] = tested on: common cocklebur (Xanthium strumarium L.); test: Preemergence herbicidal activity, cocklebur; conditions: Rate of Application 0.3 Kg/Ha, examined after 12-17 days
[14] = tested on: morningglory (Ipomea lacunosa or Ipomea hederacea); test: Preemergence herbicidal activity, morningglory; conditions: Rate of Application 0.3 Kg/Ha, examined after 12-17 days
[15] = tested on: velvetleaf (Abutilon theophrasti); test: Postemergence herbicidal activity, velvetleaf; conditions: rate of application 0.3 Kg/Ha, rated after 12-17 days
[16] = tested on: blackgrass (Aloepecurus myosuroides); test: Postemergence herbicidal activity, blackgrass; conditions: rate of application 0.3 Kg/Ha, rated after 12-17 days
[17] = tested on: wheat (Triticum aestivum var. Lew); test: Postemergence herbicidal activity, wheat; conditions: rate of application 0.3 Kg/Ha, rated after 12-17 days
[18] = tested on: Johnsongrass (Sorghum halepense); test: Preemergence herbicidal activity, johnsongrass; conditions: Rate of Application 0.3 Kg/Ha, examined after 12-17 days
[19] = tested on: velvetleaf (Abutilon theophrasti); test: Preemergence herbicidal activity, velvetleaf; conditions: Rate of Application 0.3 Kg/Ha, examined after 12-17 days
[20] = tested on: soybean (Glycine max var. Winchester); test: Postemergence herbicidal activity, soybean; conditions: rate of application 0.3 Kg/Ha, rated after 12-17 days

| SMILES | PREEMERGENCE HERBICIDAL ACTIVITY (% CONTROL) CRN [1] | Postemergence herbicidal activity (% control) XANPE [2] | PREEMERGENCE HERBICIDAL ACTIVITY (% CONTROL) SOY [3] | PREEMERGENCE HERBICIDAL ACTIVITY (% CONTROL) SETVI [4] | Postemergence herbicidal activity (% control) CRN [5] | PREEMERGENCE HERBICIDAL ACTIVITY (% CONTROL) WHT [6] | PREEMERGENCE HERBICIDAL ACTIVITY (% CONTROL) ALOMY [7] | Postemergence herbicidal activity (% control) STEME [8] | Postemergence herbicidal activity (% control) SETVI [9] | Postemergence herbicidal activity (% control) IPOSS [10] | Postemergence herbicidal activity (% control) SORHA [11] | PREEMERGENCE HERBICIDAL ACTIVITY (% CONTROL) STEME [12] | PREEMERGENCE HERBICIDAL ACTIVITY (% CONTROL) XANPE [13] | PREEMERGENCE HERBICIDAL ACTIVITY (% CONTROL) IPOSS [14] | Postemergence herbicidal activity (% control) ABUTH [15] | Postemergence herbicidal activity (% control) ALOMY [16] | Postemergence herbicidal activity (% control) WHT [17] | PREEMERGENCE HERBICIDAL ACTIVITY (% CONTROL) SORHA [18] | PREEMERGENCE HERBICIDAL ACTIVITY (% CONTROL) ABUTH [19] | Postemergence herbicidal activity (% control) SOY [20] |
| --- | --- | --- | --- | --- | --- | --- | --- | --- | --- | --- | --- | --- | --- | --- | --- | --- | --- | --- | --- | --- |
| CCOC(=O)c1cc2c(-n3c(=O)cc(C(F)(F)F)n(C)c3=O)c(F)cc(Cl)c2n1C [Compound 522] | 80% | 100% | 90% | 100% | 90% | 40% | 75% | 100% | 100% | 100% | 100% | 100% | 50% | 100% | 100% | 50% | 45% | 100% | 100% | 90% |
| CCc1nc2c(-n3c(=O)cc(C(F)(F)F)n(C)c3=O)c(F)cc(Cl)c2o1 [Compound 25] | 100% | 100% | 100% | 100% | 90% | 100% | 90% | 100% | 100% | 100% | 90% | 100% | 95% | 100% | 100% | 80% | 80% | 100% | 100% | 100% |
| Cn1c(C(F)(F)F)cc(=O)n(-c2c(F)cc(Cl)c3cc(C(C)(C)O)oc23)c1=O [Compound 242] | 100% | 100% | 100% | 100% | 100% | 100% | 100% | 100% | 100% | 100% | 100% | 100% | 100% | 100% | 100% | 100% | 100% | 100% | 100% | 100% |
| Cn1c(C(F)(F)F)cc(=O)n(-c2c(F)cc(Br)c3oc(N)nc23)c1=O [Compound 98] | 80% | 20% | 50% | 30% | 50% | 40% | 10% | 5% | 40% | 20% | 20% | 70% | 60% | 75% | 60% | 5% | 10% | 65% | 80% | 40% |
